According to ChEMBL document CHEMBL1138974 (Bioorg Med Chem Lett, 2006):

molecular target: T1, Sodium- and chloride-dependent glycine transporter 1 (Homo sapiens, UniProt P48067); assay: Inhibition of [3H]glycine uptake at human GlyT1 by radiometric assay; conditions: not given
T1 sequence (P48067 whole entry): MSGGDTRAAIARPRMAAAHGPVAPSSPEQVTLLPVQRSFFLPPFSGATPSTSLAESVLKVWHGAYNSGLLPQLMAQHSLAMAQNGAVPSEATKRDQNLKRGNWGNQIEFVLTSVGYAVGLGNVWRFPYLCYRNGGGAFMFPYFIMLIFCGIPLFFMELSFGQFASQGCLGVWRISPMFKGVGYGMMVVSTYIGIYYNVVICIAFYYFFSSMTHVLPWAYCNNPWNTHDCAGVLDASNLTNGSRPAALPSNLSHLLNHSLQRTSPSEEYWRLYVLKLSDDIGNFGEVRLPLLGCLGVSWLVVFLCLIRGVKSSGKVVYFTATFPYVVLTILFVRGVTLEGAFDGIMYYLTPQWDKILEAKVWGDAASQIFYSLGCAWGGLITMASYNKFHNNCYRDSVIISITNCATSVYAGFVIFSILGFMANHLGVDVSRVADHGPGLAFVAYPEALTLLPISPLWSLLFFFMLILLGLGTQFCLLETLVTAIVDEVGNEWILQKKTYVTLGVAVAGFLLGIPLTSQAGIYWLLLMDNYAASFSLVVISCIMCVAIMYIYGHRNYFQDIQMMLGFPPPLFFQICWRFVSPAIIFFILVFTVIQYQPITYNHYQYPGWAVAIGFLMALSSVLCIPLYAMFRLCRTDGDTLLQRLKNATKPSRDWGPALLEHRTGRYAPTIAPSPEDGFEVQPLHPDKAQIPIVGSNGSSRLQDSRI

Compound | EC50 [µM]
O=C1NCN(c2ccccc2)C12CCN(C1CCCCC1(O)c1ccccc1)CC2 (stereo not given) | 0.044
COc1ccc(C2(O)CCCCC2N2CCC3(CC2)C(=O)NCC3c2ccccc2)cc1 (stereo not given) | 4.48
O=C1NCC(c2ccc(F)cc2)C12CCN(C1CCCCC1(O)c1ccc(C(F)(F)F)cc1)CC2 (stereo not given) | 1.31
COc1cccc(C2(O)CCCCC2N2CCC3(CC2)C(=O)NCC3c2ccccc2)c1 (stereo not given) | > 30
N#Cc1ccc(C2(O)CCCCC2N2CCC3(CC2)C(=O)NCC3c2ccc(F)cc2)cc1 (mixture of isomers) | 1.95
Cc1ccc(C2(O)CCCCC2N2CCC3(CC2)C(=O)NCC3c2ccc(F)cc2)cc1 (single isomer, unassigned; diastereomer 1) | 0.42
O=C1NCC(c2ccc(F)cc2)C12CCN(C1CCCCC1(O)c1ccccc1F)CC2 (single isomer, unassigned; diastereomer 1) | 0.596
Cc1cccc(C2(O)CCCCC2N2CCC3(CC2)C(=O)NCC3c2ccc(F)cc2)c1 (single isomer, unassigned; diastereomer 1) | 2.64
Cc1ccccc1C1(O)CCCCC1N1CCC2(CC1)C(=O)NCC2c1ccc(F)cc1 (single isomer, unassigned; diastereomer 1) | 0.596
O=C1NCC(c2ccc(F)cc2)C12CCN(C1CCCCC1(O)c1cccc(F)c1)CC2 (single isomer, unassigned; diastereomer 1) | 0.095
CC(C)(C)c1ccc(C2(O)CCCCC2N2CCC3(CC2)C(=O)NCC3c2ccc(F)cc2)cc1 (single isomer, unassigned; diastereomer 1) | > 30
O=C1NCC(c2ccc(F)cc2)C12CCN(C1CCCCC1(O)c1ccccc1F)CC2 (single isomer, unassigned; diastereomer 2) | 0.11
O=C1NCC(c2ccccc2)C12CCN(C1CCCCC1(O)c1ccc(F)cc1)CC2 (single isomer, unassigned; diastereomer 2) | 0.825
Cc1cccc(C2(O)CCCCC2N2CCC3(CC2)C(=O)NCC3c2ccc(F)cc2)c1 (single isomer, unassigned; diastereomer 2) | 10.7
O=C1NCC(c2ccc(F)cc2)C12CCN(C1CCCCC1(O)c1cccc(F)c1)CC2 (single isomer, unassigned; diastereomer 2) | 0.077
O=C1NCC(c2ccccc2)C12CCN(C1CCCCC1(O)c1cccc(F)c1)CC2 (single isomer, unassigned; diastereomer 2) | 2.6
CC(C)(C)c1ccc(C2(O)CCCCC2N2CCC3(CC2)C(=O)NCC3c2ccc(F)cc2)cc1 (single isomer, unassigned; diastereomer 2) | > 30
Cc1ccc(C2(O)CCCCC2N2CCC3(CC2)C(=O)NCC3c2ccc(F)cc2)cc1 (single isomer, unassigned; diastereomer 3) | 0.437
COc1ccc(C2(O)CCCCC2N2CCC3(CC2)C(=O)NCC3c2ccc(F)cc2)cc1 (single isomer, unassigned; diastereomer 3) | 1.13
Cc1ccccc1C1(O)CCCCC1N1CCC2(CC1)C(=O)NCC2c1ccc(F)cc1 (single isomer, unassigned; diastereomer 3) | 17.7
O=C1NCC(c2ccccc2)C12CCN(C1CCCCC1(O)c1cccc(F)c1)CC2 (single isomer, unassigned; diastereomer 3) | 0.127
COc1ccc(C2(O)CCCCC2N2CCC3(CC2)C(=O)NCC3c2ccc(F)cc2)cc1 (stereo in doubt) | 0.158
O=C1NCC(c2ccc(F)cc2)C12CCN(C1CCCCC1(O)c1ccccc1F)CC2 (stereo in doubt) | 1.77
COc1cccc(C2(O)CCCCC2N2CCC3(CC2)C(=O)NCC3c2ccc(F)cc2)c1 (stereo in doubt) | 0.158
O=C1NC[C@@H](c2ccccc2)C12CCN(C1CCCCC1c1ccccc1)CC2 (stereo in doubt; 3) | 0.232
O=C1NCC(c2ccc(F)cc2)C12CCN(C1CCCCC1(O)c1cccc(Cl)c1)CC2 (stereo in doubt; form 2) | 0.073

More lines, now with the values ahead:

EC50 [µM] | Compound
1.39 | O=C1NCC(c2ccc(F)cc2)C12CCN(C1CCCCC1(O)c1ccccc1OC(F)(F)F)CC2 (stereo not given)
18.6 | CS(=O)(=O)c1ccc(C2(O)CCCCC2N2CCC3(CC2)C(=O)NCC3c2ccc(F)cc2)cc1 (stereo not given)
3.3 | COc1ccc(C2(O)CCCCC2N2CCC3(CC2)C(=O)NCC3c2ccc(F)cc2)cc1 (single isomer, unassigned; diastereomer 1)
0.158 | O=C1NCC(c2ccccc2)C12CCN(C1CCCCC1(O)c1cccc(F)c1)CC2 (single isomer, unassigned; diastereomer 1)
6.25 | O=C1NCC(c2ccc(F)cc2)C12CCN(C1CCCCC1(O)c1cccc(Cl)c1)CC2 (single isomer, unassigned; diastereomer 1)
11.3 | N#Cc1ccc(C2(O)CCCCC2N2CCC3(CC2)C(=O)NCC3c2ccc(F)cc2)cc1 (single isomer, unassigned; diastereomer 2)
> 30 | Cc1ccc(C2(O)CCCCC2N2CCC3(CC2)C(=O)NCC3c2ccc(F)cc2)cc1 (single isomer, unassigned; diastereomer 2)
1.18 | COc1ccc(C2(O)CCCCC2N2CCC3(CC2)C(=O)NCC3c2ccc(F)cc2)cc1 (single isomer, unassigned; diastereomer 2)
2.6 | COc1cccc(C2(O)CCCCC2N2CCC3(CC2)C(=O)NCC3c2ccc(F)cc2)c1 (single isomer, unassigned; diastereomer 2)
2.34 | O=C1NCC(c2ccc(F)cc2)C12CCN(C1CCCCC1(O)c1cccc(Cl)c1)CC2 (single isomer, unassigned; diastereomer 2)
0.127 | COc1cccc(C2(O)CCCCC2N2CCC3(CC2)C(=O)NCC3c2ccc(F)cc2)c1 (single isomer, unassigned; diastereomer 3)
0.132 | Cc1ccc(C2(O)CCCCC2N2CCC3(CC2)C(=O)NCC3c2ccc(F)cc2)cc1 (single isomer, unassigned; diastereomer 4)
0.069 | O=C1NCC(c2ccc(F)cc2)C12CCN(C1CCCCC1(O)c1ccccc1F)CC2 (single isomer, unassigned; diastereomer 4)
5.3 | COc1cccc(C2(O)CCCCC2N2CCC3(CC2)C(=O)NCC3c2ccc(F)cc2)c1 (single isomer, unassigned; diastereomer 4)
0.069 | Cc1ccccc1C1(O)CCCCC1N1CCC2(CC1)C(=O)NCC2c1ccc(F)cc1 (single isomer, unassigned; diastereomer 4)
0.646 | O=C1NCC(c2ccc(F)cc2)C12CCN(C1CCCCC1(O)c1cccc(F)c1)CC2 (single isomer, unassigned; diastereomer 4)
5.3 | O=C1NCC(c2ccccc2)C12CCN(C1CCCCC1(O)c1cccc(F)c1)CC2 (single isomer, unassigned; diastereomer 4)
0.11 | Cc1ccccc1C1(O)CCCCC1N1CCC2(CC1)C(=O)NCC2c1ccc(F)cc1 (stereo in doubt)
0.118 | O=C1NCC(c2ccc(F)cc2)C12CCN(C1CCCCC1(O)c1cccc(Cl)c1)CC2 (stereo in doubt; form 1)

molecular target: Nociceptin receptor (Homo sapiens, UniProt P41146); assay: Displacement of [3H]NOP from human NOP receptors expressed in HEK293 cells; assay type: cell-based; conditions: not given
Sequence (P41146 whole entry): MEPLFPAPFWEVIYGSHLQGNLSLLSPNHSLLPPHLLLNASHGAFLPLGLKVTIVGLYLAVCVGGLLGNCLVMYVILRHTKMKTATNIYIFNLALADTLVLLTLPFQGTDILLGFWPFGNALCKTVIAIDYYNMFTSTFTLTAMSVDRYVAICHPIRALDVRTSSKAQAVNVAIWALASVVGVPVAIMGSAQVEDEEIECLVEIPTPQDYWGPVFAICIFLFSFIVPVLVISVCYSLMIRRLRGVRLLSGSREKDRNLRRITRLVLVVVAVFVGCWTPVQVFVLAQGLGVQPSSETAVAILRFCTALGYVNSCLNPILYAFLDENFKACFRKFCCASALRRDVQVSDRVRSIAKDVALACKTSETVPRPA

Compound | IC50 [µM]
O=C1NCC(c2ccccc2)C12CCN(C1CCCCC1(O)c1ccc(F)cc1)CC2 (single isomer, unassigned; diastereomer 3) | > 10
O=C1NC[C@@H](c2ccccc2)C12CCN(C1CCCCC1c1ccccc1)CC2 (stereo in doubt; 3) | > 10

same assay, conditions: hek293

Compound | IC50 [µM]
O=C1NCC(c2ccccc2)C12CCN(C1CCCCC1(O)c1ccc(F)cc1)CC2 (single isomer, unassigned; diastereomer 2) | > 10

molecular target: T2, Sodium- and chloride-dependent glycine transporter 2 (Homo sapiens, UniProt Q9Y345); assay: Inhibition of [3H]glycine uptake at human GlyT2 by radiometric assay; conditions: not given
T2 sequence (Q9Y345 whole entry): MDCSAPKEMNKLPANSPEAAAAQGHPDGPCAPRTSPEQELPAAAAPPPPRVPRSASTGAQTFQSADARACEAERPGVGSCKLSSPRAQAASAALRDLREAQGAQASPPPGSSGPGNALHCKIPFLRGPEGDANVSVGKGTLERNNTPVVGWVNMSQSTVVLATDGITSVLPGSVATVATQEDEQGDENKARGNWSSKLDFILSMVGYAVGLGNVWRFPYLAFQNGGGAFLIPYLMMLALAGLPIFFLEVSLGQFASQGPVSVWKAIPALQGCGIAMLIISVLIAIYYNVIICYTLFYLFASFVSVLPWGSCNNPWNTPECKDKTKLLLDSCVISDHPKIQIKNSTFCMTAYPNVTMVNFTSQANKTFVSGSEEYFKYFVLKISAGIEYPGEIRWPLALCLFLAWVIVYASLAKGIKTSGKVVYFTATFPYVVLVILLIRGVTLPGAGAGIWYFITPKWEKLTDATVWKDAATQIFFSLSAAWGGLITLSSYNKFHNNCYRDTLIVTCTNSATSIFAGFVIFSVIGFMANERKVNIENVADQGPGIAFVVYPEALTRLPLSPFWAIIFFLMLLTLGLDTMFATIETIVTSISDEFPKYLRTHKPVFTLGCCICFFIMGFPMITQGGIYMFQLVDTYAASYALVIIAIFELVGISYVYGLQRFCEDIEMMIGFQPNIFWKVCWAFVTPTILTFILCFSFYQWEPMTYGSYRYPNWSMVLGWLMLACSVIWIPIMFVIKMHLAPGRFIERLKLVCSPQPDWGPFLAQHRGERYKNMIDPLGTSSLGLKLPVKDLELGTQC

Compound | EC50 [µM]
O=C1NCN(c2ccccc2)C12CCN(C1CCCCC1(O)c1ccccc1)CC2 (stereo not given) | 72
O=C1NCC(c2ccccc2)C12CCN(C1CCCCC1(O)c1ccc(F)cc1)CC2 (single isomer, unassigned; diastereomer 3) | > 30
O=C1NC[C@@H](c2ccccc2)C12CCN(C1CCCCC1c1ccccc1)CC2 (stereo in doubt; 3) | 25

system: not listed separately; assay: Intrinsic clearance in mouse microsome; assay type: ADME; conditions: microsomes

microsomal CLint [µL/min/mg] | Compound
16 | O=C1NCC(c2ccc(F)cc2)C12CCN(C1CCCCC1(O)c1cccc(F)c1)CC2 (single isomer, unassigned; diastereomer 2)
39 | O=C1NCC(c2ccc(F)cc2)C12CCN(C1CCCCC1(O)c1ccccc1F)CC2 (single isomer, unassigned; diastereomer 4)

system: not listed separately; assay: Intrinsic clearance in human microsome; assay type: ADME; conditions: microsomes

microsomal CLint [µL/min/mg] | Compound
11 | O=C1NCC(c2ccc(F)cc2)C12CCN(C1CCCCC1(O)c1cccc(F)c1)CC2 (single isomer, unassigned; diastereomer 2)
28 | O=C1NCC(c2ccc(F)cc2)C12CCN(C1CCCCC1(O)c1ccccc1F)CC2 (single isomer, unassigned; diastereomer 4)
